Data on 5 compounds can be found in patent US8288430B2, “Spiro(5.5)undecane derivatives” (Grunenthal GmbH, priority 2008, dated 2012).

Broadly, the melting point is the temperature, or range, at which the solid turns liquid. The Ki is a measure of affinity in units of concentration, obtained from inhibition or displacement. A lower Ki goes with higher affinity.

The target in one data set is hERG ion channel (Homo sapiens, UniProt Q12809). Briefly: hERG K+ channel binding assay, displacement of [3H] dofetilide. The conditions noted are these: for Ki (hERG) column, value given as % (1 μM): test concentration 1 μM. For orientation: The hERG channel carries a current that helps repolarise heart muscle cells.
Data set [1] concerns Sprague Dawley rats (mechanical allodynia after spinal nerve ligature). The data set can be described thus: Chung model: mononeuropathic pain after spinal nerve ligature (SNL). Particulars: at 5 μg/kg. The format is in vivo.

hERG ion channel, sequence (Q12809 whole entry): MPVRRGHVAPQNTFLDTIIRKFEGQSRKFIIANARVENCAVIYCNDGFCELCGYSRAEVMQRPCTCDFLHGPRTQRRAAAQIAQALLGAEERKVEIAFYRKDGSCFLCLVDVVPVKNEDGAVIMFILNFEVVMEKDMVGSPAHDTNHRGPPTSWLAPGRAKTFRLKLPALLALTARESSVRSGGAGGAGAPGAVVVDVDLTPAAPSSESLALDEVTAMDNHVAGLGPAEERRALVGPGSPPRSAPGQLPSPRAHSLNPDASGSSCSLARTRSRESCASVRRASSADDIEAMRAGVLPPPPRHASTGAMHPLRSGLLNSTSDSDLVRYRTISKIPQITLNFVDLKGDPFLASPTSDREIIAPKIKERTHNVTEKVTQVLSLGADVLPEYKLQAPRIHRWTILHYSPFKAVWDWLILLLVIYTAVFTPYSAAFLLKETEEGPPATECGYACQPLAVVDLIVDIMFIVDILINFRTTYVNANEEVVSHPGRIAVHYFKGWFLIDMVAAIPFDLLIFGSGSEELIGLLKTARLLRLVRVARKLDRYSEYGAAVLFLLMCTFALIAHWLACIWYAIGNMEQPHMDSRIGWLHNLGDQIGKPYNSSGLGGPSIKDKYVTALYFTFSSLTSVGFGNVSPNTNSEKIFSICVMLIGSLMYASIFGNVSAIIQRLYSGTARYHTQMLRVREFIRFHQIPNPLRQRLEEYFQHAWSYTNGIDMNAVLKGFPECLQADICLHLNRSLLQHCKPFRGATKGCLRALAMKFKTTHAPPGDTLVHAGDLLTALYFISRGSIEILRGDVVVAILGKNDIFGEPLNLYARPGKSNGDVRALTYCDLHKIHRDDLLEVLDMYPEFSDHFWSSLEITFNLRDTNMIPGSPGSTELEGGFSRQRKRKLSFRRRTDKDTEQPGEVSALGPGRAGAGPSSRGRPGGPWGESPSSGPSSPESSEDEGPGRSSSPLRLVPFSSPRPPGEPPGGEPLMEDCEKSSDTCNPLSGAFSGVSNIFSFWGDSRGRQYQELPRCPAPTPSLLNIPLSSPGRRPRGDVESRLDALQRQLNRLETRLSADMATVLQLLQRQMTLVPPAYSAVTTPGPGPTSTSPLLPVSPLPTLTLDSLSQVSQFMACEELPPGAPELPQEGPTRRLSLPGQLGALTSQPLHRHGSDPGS

For the compound `CN(C)C1(Cc2ccccc2)CCC2(CCCc3c2[nH]c2ccccc32)CC1` (stereo not drawn), the melting point fell in the range of 174 to 186 °C.

Take `CN(C)C1(c2ccccc2)CCC2(CC1)NCCc1c2[nH]c2ccccc12` (single isomer, unassigned) [C-1, reference compound]: the “Ki (hERG) column, value given as % (1 μM)” value at hERG ion channel was 19% (1 μM).

`CN(C)C1(c2ccccc2)CCC2(CC1)NCCc1c2[nH]c2ccccc12` (single isomer, unassigned) [C-2, reference compound] displayed a Ki at hERG ion channel of 490 nM.

For `CN(C)C1(c2ccccc2)CCC2(CCCc3c2[nH]c2ccccc32)CC1` (single isomer, unassigned) [Ex. 1, N,N-dimethyl-4′-phenyl-2,3,4,9-tetrahydrospiro[carbazole-1,1′-cyclohexane]-4′-amine], at hERG ion channel, the “Ki (hERG) column, value given as % (1 μM)” value is 13% (1 μM).

Turning to `CN(C)C1(c2ccccc2)CCC2(CCCc3c2[nH]c2ccccc32)CC1` (single isomer, unassigned) [Ex. 2, N,N-dimethyl-4′-phenyl-2,3,4,9-tetrahydrospiro[carbazole-1,1′-cyclohexane]-4′-amine], the “SNL Rat, i.v.” value in data set [1] came out at 19% MPE. Further, the “Ki (hERG) Mean [μM]” value at hERG ion channel is “n.e”.
